Entries after “also recorded” stand apart in the source; their conditions may differ.
Experiments:
B16-F10 melanoma cells [1] = experiment: Local growth of s.c. inoculated B16-F10 melanoma; type: in vivo, C57BL/6 mice; details: 40 μg/injection locally, days 0, 3, 6; measured day 10
Experimental: (§1) FIGS. 4A-C. Impact of Pep-1 on lung metastasis of melanoma. (FIG. 4A) B16-F10 melanoma cells were suspended (4×10^5 cells/ml) in PBS containing Pep-1 monomer (2 or 3 mg/ml) (circles) or 2% DMSO alone (triangles). C57BL/6 mice received i.v. injection of these cell suspensions (500 μl/animal) and were examined for survival. Data shown are the cumulative survival curves from four independent experiments (n=37 for Pep-1 and n=20 for PBS control). […] (FIG. 4B) B16-F10 melanoma cells (1×10^5 cells/animal) were s.c. injected into the back of C57BL/6 mice. Pep-1 or RP (40 μg/injection) was injected locally into the tumor inoculation sites 0. 3. and 6 days after tumor injection. Data shown are the means+/−s.e.m. (n=10) of tumor sizes and tumor weights measured 10 days after tumor inoculation. (FIG. 4C) B16-F10 melanoma cells (2×10^5 cells/well) were cultured in the presence of the indicated concentrations of Pep-1 (closed circles) or PR (open circles). Data shown are the means+/−s.e.m.(n=3) of ^3H-thymidine uptake at 24 hr.

HA [2] = details: co-pending application 60/126,475; cited from earlier work
HA [3] = details: co-pending application 60/126,475; cited from earlier work; remark: listed apart in the source
B16-F10 melanoma cells [4] = experiment: In vitro growth of B16-F10 melanoma cells (3H-thymidine uptake); type: cell-based, mouse; details: 3H-thymidine uptake at 24 hr
Experimental: as §1

[5] = systemic, local, or topical administration; co-pending application; cited from earlier work
Langerhans cells (LC) = experiment: DNFB-induced LC maturation (CD86 expression by IA+ epidermal cells); type: in vivo, BALB/c mice; details: two local injections, 40 μg/injection/ear, 24 and 3 hours before DNFB
Excerpt: FIGS. 6A-C. Impact of Pep-1 on hapten-induced LC maturation. (FIG. 6A) Epidermal cells isolated from BALB/c mice at 17 hr after topical application of 0.5% DNFB or vehicle alone were double-stained with FITC-conjugated anti-IA mAb and PE-conjugated anti-CD86 mAb. Data shown are representative two-color FACS profiles, documenting marked elevated surface expression of CD86 by IA^+ epidermal cells (i.e., LC) after DNFB application. (FIG. 6B) BALB/c mice received subcutaneous two local injections of Pep-1 or RP (40 μg/injection/ear) 24 and 3 hours before topical application of 0.5% DNFB and epidermal cells were isolated 17 hr later to examine the expression levels of CD86 on LC. […] (FIG. 6C) Graphical representation of the % CD86^+ cells/IA^+ LC from three independent experiments described in (FIG. 6B) with circles, triangles, and squares showing corresponding pairs in each experiment. Bars represent the mean values (n=3) and the asterisk indicates statistically significant difference between the Pep-1 and the RP panels (*p<0.03 by the Mann-Whitney U test).
A critical question concerns the physiological significance of the above finding. Topical application of haptens is known to trigger not only LC migration from the epidermis, but also their maturation. […]

GAHWQFNALTVR [Pep-1]
effect on local growth in animals following s.c. inoculation (B16-F10 melanoma cells [1]): no apparent effects | binding to HA (HA [2]): specific binding to soluble, immobilized, and cell-associated forms of HA | inhibition of leukocyte adhesion to HA substrates (HA [3]): inhibited leukocyte adhesion to HA substrates almost completely | effect on in vitro growth of B16-F10 melanoma cells (B16-F10 melanoma cells [4]): no apparent effects | inhibition of contact hypersensitivity responses [5]: inhibited the expression of contact hypersensitivity responses | prevention of DNFB-induced LC maturation (CD86 up-regulation) (Langerhans cells (LC)): prevented this DNFB-induced LC maturation; also recorded: is prevented
